Data reported in ChEMBL document CHEMBL1201862, “PubChem BioAssay data set” (2004).
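Protocol summary: plate cells (96-well), add compound at 5 concentrations, incubate 48 h, interpolate endpoints linearly. GI50 is the concentration that inhibits growth by half.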 Calls of active or inactive are those of the source. No stated cut-off is given here; in the data, active = GI50 up to about 1.1 µM and inactive = higher.

Key:
Assay in all cases: NCI anticancer screen, dose series, 48 h
786-0 = tested on: 786-0
A549 = tested on: A549
CAKI-1 = tested on: CAKI-1
CCRF-CEM = tested on: CCRF-CEM
HCT-15 = tested on: HCT-15
HL-60 = tested on: HL-60
HOP-62 = tested on: HOP-62
HOP-92 = tested on: HOP-92
Hs-578T = tested on: Hs-578T
K562 = tested on: K562
MOLT-4 = tested on: MOLT-4
OVCAR-4 = tested on: OVCAR-4
PC-3 = tested on: PC-3
SF-539 = tested on: SF-539
SK-MEL-28 = tested on: SK-MEL-28
SK-MEL-5 = tested on: SK-MEL-5
SK-OV-3 = tested on: SK-OV-3
SR = tested on: SR
UACC-257 = tested on: UACC-257

SMILES	GI50 (786-0)	GI50 (A549)	GI50 (CAKI-1)	GI50 (CCRF-CEM)	GI50 (HCT-15)	GI50 (HL-60)	GI50 (HOP-62)	GI50 (HOP-92)	GI50 (Hs-578T)	GI50 (K562)	GI50 (MOLT-4)	GI50 (OVCAR-4)	GI50 (PC-3)	GI50 (SF-539)	GI50 (SK-MEL-28)	GI50 (SK-MEL-5)	GI50 (SK-OV-3)	GI50 (SR)	GI50 (UACC-257)
OC1COC(OCc2ccccc2)C(O)C1O (configuration not stated)	> 100 µM (inactive)	> 100 µM (inactive)	> 100 µM (inactive)	> 100 µM (inactive)	> 100 µM	> 100 µM (inactive)	> 100 µM (inactive)	> 100 µM (inactive)	> 100 µM (inactive)	> 100 µM (inactive)	> 100 µM (inactive)	> 100 µM (inactive)	> 100 µM (inactive)	> 100 µM (inactive)	> 100 µM (inactive)	> 100 µM (inactive)	> 100 µM (inactive)	> 100 µM (inactive)	> 100 µM (inactive)
COc1cccc2c1NC(=O)Cc1c-2[nH]c2ccccc12	> 100 µM (inactive)	> 100 µM (inactive)	> 100 µM (inactive)	> 100 µM (inactive)	73.8 µM	> 100 µM (inactive)	> 100 µM (inactive)	> 100 µM (inactive)	87.7 µM (inactive)	53.1 µM (inactive)	13.6 µM (inactive)	98.2 µM (inactive)	> 100 µM (inactive)	> 100 µM (inactive)	30.8 µM (inactive)	41.9 µM (inactive)	> 100 µM (inactive)	> 100 µM (inactive)	–
CN(C)NC(=S)Nc1ccccc1Br	> 100 µM (inactive)	> 100 µM (inactive)	> 100 µM (inactive)	> 100 µM (inactive)	> 100 µM	> 100 µM (inactive)	–	> 100 µM (inactive)	> 100 µM (inactive)	> 100 µM (inactive)	> 100 µM (inactive)	> 100 µM (inactive)	> 100 µM (inactive)	> 100 µM (inactive)	> 100 µM (inactive)	> 100 µM (inactive)	> 100 µM (inactive)	> 100 µM (inactive)	> 100 µM (inactive)
Cc1ccc2nc(N/N=C/c3ccc(C)s3)cc(C)c2c1	3.37 µM (inactive)	6.79 µM (inactive)	17.1 µM (inactive)	5.11 µM (inactive)	4.52 µM	4.71 µM (inactive)	15.7 µM (inactive)	4.44 µM (inactive)	15.2 µM (inactive)	3.99 µM (inactive)	5.75 µM (inactive)	10.3 µM (inactive)	11.8 µM (inactive)	11 µM (inactive)	6.76 µM (inactive)	4.56 µM (inactive)	18.3 µM (inactive)	19.7 µM (inactive)	5.56 µM (inactive)
CSC(SC)=C1C(=O)NN=C1C	> 100 µM (inactive)	> 100 µM (inactive)	89.3 µM (inactive)	> 100 µM (inactive)	> 100 µM	> 100 µM (inactive)	> 100 µM (inactive)	35.1 µM (inactive)	> 100 µM (inactive)	> 100 µM (inactive)	> 100 µM (inactive)	> 100 µM (inactive)	> 100 µM (inactive)	> 100 µM (inactive)	> 100 µM (inactive)	> 100 µM (inactive)	> 100 µM (inactive)	> 100 µM (inactive)	> 100 µM (inactive)
O=C1CC(=O)c2c(N3CCCC3)sc(N3CCCC3)c21	> 100 µM (inactive)	> 100 µM (inactive)	> 100 µM (inactive)	41.2 µM (inactive)	> 100 µM	> 100 µM (inactive)	> 100 µM (inactive)	> 100 µM (inactive)	> 100 µM (inactive)	57.4 µM (inactive)	59 µM (inactive)	> 100 µM (inactive)	> 100 µM (inactive)	> 100 µM (inactive)	> 100 µM (inactive)	> 100 µM (inactive)	> 100 µM (inactive)	> 100 µM (inactive)	> 100 µM (inactive)
Oc1ccc(CCc2cc(O)cc(O)c2)cc1 [DIHYDRORESVERATROL]	> 100 µM (inactive)	> 100 µM (inactive)	> 100 µM (inactive)	–	22.7 µM	50.4 µM (inactive)	> 100 µM (inactive)	> 100 µM (inactive)	> 100 µM (inactive)	80.7 µM (inactive)	90.2 µM (inactive)	> 100 µM (inactive)	> 100 µM (inactive)	> 100 µM (inactive)	> 100 µM (inactive)	> 100 µM (inactive)	> 100 µM (inactive)	> 100 µM (inactive)	> 100 µM (inactive)
CC(=O)c1cccc(NC(=O)/C(=N\NC(=S)NN)C2C(=O)Nc3ccccc3[S+]2[O-])c1 (configuration not stated)	> 100 µM (inactive)	> 100 µM (inactive)	> 100 µM (inactive)	> 100 µM (inactive)	–	> 100 µM (inactive)	> 100 µM (inactive)	83.8 µM (inactive)	> 100 µM (inactive)	> 100 µM (inactive)	> 100 µM (inactive)	–	> 100 µM (inactive)	> 100 µM (inactive)	> 100 µM (inactive)	> 100 µM (inactive)	> 100 µM (inactive)	> 100 µM (inactive)	> 100 µM (inactive)
